In PubChem BioAssay (NCI):
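Results reflect a 48-hour exposure of cells in 96-well plates to compound at five concentrations. TGI marks complete inhibition of growth.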

Key:
Test in all cases: NCI tumour cell line growth inhibition, 48 h
[1] = test system: BT-549 breast
[2] = test system: CAKI-1 renal
[3] = test system: HCT-116 colon
[4] = test system: HOP-62 NSCLC
[5] = test system: K-562 leukemia
[6] = test system: MCF7 breast
[7] = test system: MOLT-4 leukemia
[8] = test system: NCI-H23 lung
[9] = test system: PC-3 prostate
[10] = test system: SF-295 CNS
[11] = test system: SN12C renal
[12] = test system: SNB-75 CNS
[13] = test system: T-47D breast
[14] = test system: UACC-62 melanoma
[15] = test system: UO-31 renal
[16] = test system: CCRF-CEM leukemia
[17] = test system: LOX IMVI melanoma
[18] = test system: NCI-H460 lung

Compound | TGI [1] | TGI [2] | TGI [3] | TGI [4] | TGI [5] | TGI [6] | TGI [7] | TGI [8] | TGI [9] | TGI [10] | TGI [11] | TGI [12] | TGI [13] | TGI [14] | TGI [15] | TGI [16] | TGI [17] | TGI [18]
Cc1ccc(O)c(C(c2cccc(C(c3cc(C)ccc3O)c3cc(C)ccc3O)c2)c2cc(C)ccc2O)c1 | 4.11 µM | 3.04 µM | 3.34 µM | 4.04 µM | 3.37 µM | 3.18 µM | 18.8 µM | 3.18 µM | 3.29 µM | 3.91 µM | 3.4 µM | 3.54 µM | 4.45 µM | 3.51 µM | 3.34 µM |  |  | 
CC1=C(C(=O)OC2CC3CCC2(C)C3(C)C)C2Nc3ccccc3N(C)C2O1 (stereo not drawn) | 6.43 µM | 10.5 µM | 7.36 µM | 16.6 µM | > 29.4 µM |  | 6.69 µM | 6.59 µM | 12.3 µM | 3.04 µM | 4.25 µM | 11.5 µM | 11.8 µM | 4.29 µM | 7.19 µM | 7.07 µM | 6.12 µM | 3.7 µM
CSC1=N/C(=C\c2ccc(Cl)cc2)C(=O)N1CN1CCCCC1 |  |  | > 100 µM | > 100 µM | > 100 µM | 82.8 µM | > 100 µM | > 100 µM | > 100 µM | > 100 µM | > 100 µM | > 100 µM |  | > 100 µM | > 100 µM | > 100 µM | > 100 µM | 
OC12c3ccccc3C1CCCCC2N1CCCC1 (stereo not drawn) |  |  | > 100 µM | > 100 µM |  |  | > 100 µM | > 100 µM |  | > 100 µM | > 100 µM | > 100 µM |  | > 100 µM | > 100 µM | > 100 µM | > 100 µM | > 100 µM
O=c1oc2ccc3ccccc3c2cc1-c1nnc(Nc2ccccc2)s1 | > 100 µM | > 100 µM | 52.4 µM |  | > 100 µM | > 100 µM | > 100 µM | 98.3 µM | 36.6 µM | 83.3 µM | > 100 µM |  | > 100 µM | 53.9 µM | 39.4 µM |  |  | 42.3 µM
COc1ccc(CNc2cnc3cc(N)ccc3n2)cc1 |  |  | > 100 µM | > 100 µM | > 100 µM |  | > 100 µM | > 100 µM |  | > 100 µM | > 100 µM | > 100 µM |  | > 100 µM | > 100 µM | > 100 µM | > 100 µM | > 100 µM
CC1=NN(c2cccc(Cl)c2)C2(SCC(=O)N2c2nc3ccccc3s2)C1=CC=Cc1ccccc1 (stereo not drawn) |  | > 100 µM | 73.7 µM | > 100 µM | > 100 µM | > 100 µM | 87.5 µM | 91.1 µM | > 100 µM | > 100 µM |  |  | > 100 µM |  | > 100 µM | > 100 µM | > 100 µM | > 100 µM
COc1ccccc1Nc1nc2c([nH]1)c(=O)n(C)c(=O)n2C |  | > 10 µM |  | > 10 µM | > 10 µM | > 10 µM | > 10 µM | > 10 µM | > 10 µM | > 10 µM | > 10 µM | > 10 µM | > 10 µM | > 10 µM |  | > 10 µM | > 10 µM | 
